Test results taken from patent US12291494B2, “Methods of treating fibrosis” (Nogra Pharma Limited, priority 2012, dated 2025).

Legend:
C57bl6 mice [1] = assay: DSS intestinal fibrosis study (Ex. 5/6): colon ratio weight/size; assay type: in vivo
Method: This example describes an experiment to evaluate the effect of compound 34 on intestinal fibrosis. Chronic colitis was induced in C57bl6 mice by 3 cycles of 2.5% DSS (40,000-50,000 MW, TdB consultancy AB, Sweden) dissolved in sterile drinking water for 5 days followed by 7 days of regular drinking water.
Compound 34 was used at its optimal dosage (30 mM) and administered by oral gavage daily after the second cycle of DSS and until euthanasia. Mice receiving DSS were checked twice a week for development of colitis by monitoring body weight. Euthanasia of mice was performed one week after the third cycle of DSS (see FIG. 5). Evaluation of the size and weight of the colon was evaluated post mortem.
Intestinal fibrosis is characterized by a shortening and thickening of the colon and adherences. The measure of the ratio weight/size of the colon is an indicator of the level of inflammation and fibrosis. […] Compound 34 causes a 34% reduction in the profibrotic effect of DSS leading to a significant decrease ratio weight/size of the colon of 38.13±7.82 vs 44.98±6.31 (p<0.05) compared to DSS mice receiving the vehicle (FIG. 6A). Accordingly, it reduces the morphological signs of fibrosis such as the shortening and the thickening of the colon and it decreases the collagen deposit in the colon (FIG. 6B).

[2] = tested on: main markers of fibrosis (Collagen I-III, CTGF, SMAD 2/3, PDGF, α-SMA, and TGF-β1); assay: DSS intestinal fibrosis study: immunohistochemical analysis of colon; assay type: in vivo, mice
Method: For the immunohistochemical analysis, tissue specimens from the colon were fixed in fresh 4% paraformaldehyde (PFA)/PBS solution for 3 h at room temperature, dehydrated in a graded ethanol series, and embedded in low-temperature-fusion paraffin. 3-μm-thick sections were incubated in methanol for 40 min and then in 3% hydrogen peroxide for 5 min. Samples were incubated overnight with specific antibodies against collagen types I-III (Abcam), connective tissue growth factor (CTGF) (Abcam), Platelet Derived Growth factor (PDGF), SMAD2/3, the main markers of fibrosis. The samples were washed for 5 min with PBS and incubated with streptavidin-biotin-peroxidase conjugated secondary antibody (Dako LSAB Corporation, cod K0675, Dako-Cytomation, Milano). After a wash in PBS for 10 min the sections were subjected to incubation with 3,3-diaminobenzidine-tetrahydrochloride for 1-3 min.
The specificity of immune reaction was performed omitting the primary antibodies Finally the samples were stained with hematoxylin of Mayer and observed under the Olympus BX51 Light Microscope (Olympus, Optical Co. Ltd., Tokyo, Japan).

IL-13 = assay: DSS intestinal fibrosis study: Western blot of colon, IL-13; assay type: in vivo, mice; conditions: whole colon, OD normalized with GAPDH, expressed as percentage of control groups; DSS 189.5 ± 28.71; listed as GED
Method: For the Western blot analysis, 0.5 cm of frozen colonic samples were homogenized in RIPA Buffer containing 50 mM Tris HCl pH 7.6, 150 mM NaCl, 1.5 mM MgCl2, 5 mM EDTA, 1% Triton-X and 10% Glycerol, supplemented with 100 mM Sodium Fluoride (NaF), 2 mM Sodium Orthovanadate (Na3VO4), 10 mM Sodium Pyrophosphate (NaPPi), 1 mM phenylmethanesulphone (PMSF) and a classical protease-inhibitor cocktail containing 10 μg/mL Leupeptin and Aprotinin.
For each sample, 30 μg of protein was separated by PAGE and electroblotted. Nitrocellulose membranes (100% pure) were incubated (according with a specific protocol for each antibody) with primary antibodies directed against CTGF, Collagen-I and GAPDH (purchased from Abcam, Cambridge, UK; 1:1000 for 2 h at RT), diluted in 5% non-fat milk in 0.1% TBS-t. […] Optical density of target bands was determined using a computer-assisted densitometer and the ImageJ public domain software (W. S., Rasband, ImageJ, U. S. National Institutes of Health, Bethesda, MD; http://rsb.info.nih.gov/ij/, 1997-2011). Tissue levels were expressed as units of Optical Density (OD) per quantity of total proteins, normalized with internal control GAPDH and the results were expressed as percentage of control groups.

C57bl6 mice [3] = assay: DSS intestinal fibrosis study: inflammation level by histology (May-Grunwald-Giemsa); assay type: in vivo; conditions: colon, MGG staining; DSS vehicle 3.77±0.80, control 0.50±0.33
Method: Rings of the transverse part of the colon were sampled (post mortem) and fixed in 4% formaldehyde and embedded in paraffin for histological analysis. Sections (4 μm) were stained with May-Grunwald-Giemsa and a multiparametric histological scoring (0 to 18) was performed blindly by two investigators. This staining allowed the quantification of inflammation. Histological grades, reflecting the inflammation level, were assigned based on the intensity of cellular infiltrate in the mucosa, its extension in sub-mucosa layers and the presence of epithelial lesions (see Table 5).

C57bl6 mice [4] = assay: DSS intestinal fibrosis study: level of fibrosis by Picrosirius red staining; assay type: in vivo; conditions: colon; DSS vehicle 2.27±0.12, control 1.12±0.07
Method: Samples of colon obtained were promptly fixed with 10% buffered formalin in PBS (pH 7.4) for 3 h, dehydrated in graded ethanol and embedded in low-temperature-fusion paraffin. Formalin-fixed colonic tissue was processed and 5 μm thick paraffin sections were stained with Picrosirius red staining for histological analysis. Pictures were obtained with a ×20 objective. Each section was analyzed blindly by 3 different experimenters for the quantification of the degree of fibrosis using a score from 0 to 4.

COC(Cc1ccc(N)cc1)C(=O)O (racemic) [Compound 34, (±)-2-methoxy-3-(4′-aminophenyl) propionic acid]
ratio weight/size of the colon (C57bl6 mice [1]; compound 34 30 mM 200 uL oral gavage daily day 13-36, DSS vehicle 44.98±6.31, control 20.11±3.91): 38.13±7.82 | reduction in the profibrotic effect of DSS (colon ratio weight/size) (C57bl6 mice [1]; compound 34 30 mM oral gavage): 34% | main markers of fibrosis (Collagen I-III, CTGF, SMAD 2/3, PDGF, α-SMA, TGF-β1) by IHC ([2]; colon of DSS mice vs colitic mice receiving vehicle, FIG. 9A-9E): a reduction of the main markers of fibrosis | collagen staining (immunohistochemical analysis) ([2]; colon of DSS mice, FIG. 9A): decrease in the collagen staining | IL-13 (Western blot) (IL-13): 88.88±14.01 | inflammation level, histological score (0 to 18) (C57bl6 mice [3]): 2.18±0.48 | level of fibrosis, score from 0 to 4 (Picrosirius red) (C57bl6 mice [4]): 1.625±0.15
